From ChEMBL document CHEMBL1201862, “PubChem BioAssay data set” (2004)
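How tested: cells in 96-well plates exposed to compound for 48 hours at five concentrations. At the GI50, growth is halved.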 Activity calls are given as the source filed them. Cut-off read from the data, not from the text of the source: active = GI50 up to about 1.1 µM and inactive = higher.

Columns and labels:
Assay in all cases: DTP human tumour cell line panel, 48 h
[1] = tested on: OVCAR-4
[2] = tested on: SF-539
[3] = tested on: HCT-116
[4] = tested on: NCI-H460
[5] = tested on: MDA-MB-435
[6] = tested on: KM12
[7] = tested on: EKVX
[8] = tested on: HL-60
[9] = tested on: ACHN
[10] = tested on: OVCAR-8
[11] = tested on: SF-295
[12] = tested on: BT-549
[13] = tested on: MOLT-4
[14] = tested on: A549
[15] = tested on: U-251
[16] = tested on: 786-0
[17] = tested on: DU-145
[18] = tested on: SK-MEL-5
[19] = tested on: SK-OV-3
[20] = tested on: RXF 393
[21] = tested on: OVCAR-3
[22] = tested on: NCI-H522
[23] = tested on: TK-10
[24] = tested on: NCI-H23
[25] = tested on: T47D
[26] = tested on: MDA-N
[27] = tested on: LOX IMVI
[28] = tested on: IGROV-1
[29] = tested on: UO-31
[30] = tested on: Hs-578T
[31] = tested on: UACC-62
[32] = tested on: SN12C
[33] = tested on: CCRF-CEM
[34] = tested on: SNB-75
[35] = tested on: MCF7
[36] = tested on: SNB-19
[37] = tested on: HCC 2998
[38] = tested on: SW-620
[39] = tested on: K562
[40] = tested on: SK-MEL-28
[41] = tested on: A498
[42] = tested on: UACC-257
[43] = tested on: RPMI-8226
[44] = tested on: HOP-62
[45] = tested on: Malme-3M
[46] = tested on: SF-268
[47] = tested on: SK-MEL-2
[48] = tested on: M14
[49] = tested on: NCI/ADR-RES
[50] = tested on: PC-3
[51] = tested on: COLO 205
[52] = tested on: HCT-15
[53] = tested on: OVCAR-5
[54] = tested on: SR
[55] = tested on: NCI-H226
[56] = tested on: CAKI-1
[57] = tested on: HOP-92
[58] = tested on: MDA-MB-231
[59] = tested on: HT-29

Measured: GI50

COc1ccc(C2SCC(=O)N2NC(=O)C(C)Oc2ccccc2C)cc1 (configuration not stated)
inactive: [1] > 100 µM | [2] > 100 µM | [3] 57.5 µM | [4] > 100 µM | [5] 82.8 µM | [6] > 100 µM | [7] > 100 µM | [8] 28.7 µM | [9] 68.5 µM | [10] > 100 µM | [11] 60.8 µM | [12] > 100 µM | [13] 31 µM | [14] 61.4 µM | [15] 85.7 µM | [16] > 100 µM | [17] > 100 µM | [18] 53 µM | [19] > 100 µM | [20] > 100 µM | [21] > 100 µM | [22] 56.6 µM | [23] > 100 µM | [24] 55.6 µM | [25] 46.3 µM | [26] 86.7 µM | [27] 60.1 µM | [28] > 100 µM | [29] 72.1 µM | [30] > 100 µM | [31] 80.2 µM | [32] 87.7 µM | [33] 65.2 µM | [34] > 100 µM | [35] 54.1 µM | [36] > 100 µM | [37] > 100 µM | [38] > 100 µM | [39] 41.4 µM | [40] > 100 µM | [41] 46 µM | [42] > 100 µM | [43] 41.5 µM | [44] > 100 µM | [45] > 100 µM | [46] > 100 µM | [47] 92.7 µM | [48] > 100 µM | [49] 65.2 µM | [50] > 100 µM | [51] > 100 µM | [53] > 100 µM | [54] 28.2 µM | [55] > 100 µM | [56] > 100 µM | [57] 29.2 µM | [58] 47.5 µM | [59] 95.9 µM
54.7 µM: [52]

CC1CC2OC(=O)C(C)C2CC2(C)C(OC3OC(CO)C(O)C(O)C3O)OCCC12 (configuration not stated)
> 100 µM: [52]
inactive: [1] > 100 µM | [2] > 100 µM | [3] > 100 µM | [4] > 100 µM | [5] > 100 µM | [6] > 100 µM | [7] > 100 µM | [8] > 100 µM | [9] > 100 µM | [10] > 100 µM | [11] > 100 µM | [12] 15.5 µM | [13] > 100 µM | [14] > 100 µM | [15] > 100 µM | [16] > 100 µM | [17] > 100 µM | [18] > 100 µM | [19] > 100 µM | [20] > 100 µM | [21] > 100 µM | [22] > 100 µM | [23] > 100 µM | [24] > 100 µM | [25] > 100 µM | [26] > 100 µM | [27] > 100 µM | [28] > 100 µM | [30] > 100 µM | [31] 16.9 µM | [32] > 100 µM | [33] > 100 µM | [34] > 100 µM | [35] > 100 µM | [36] > 100 µM | [37] > 100 µM | [38] > 100 µM | [39] > 100 µM | [40] > 100 µM | [41] > 100 µM | [42] > 100 µM | [43] > 100 µM | [44] > 100 µM | [45] > 100 µM | [46] > 100 µM | [47] > 100 µM | [48] > 100 µM | [49] > 100 µM | [50] > 100 µM | [51] > 100 µM | [53] > 100 µM | [54] > 100 µM | [55] > 100 µM | [56] > 100 µM | [57] > 100 µM | [58] > 100 µM | [59] > 100 µM

c1ccc(COCC23CCN(Cc4ccccc4)C(CC(OCc4ccccc4)C2)S3)cc1 (configuration not stated)
28.6 µM: [52]
inactive: [1] 53.1 µM | [2] > 100 µM | [3] 42.7 µM | [4] 46.7 µM | [5] 46 µM | [6] 44.1 µM | [7] 49 µM | [8] 19.5 µM | [9] 78.9 µM | [10] 73.5 µM | [11] 87.1 µM | [12] 42.6 µM | [13] 25.6 µM | [14] 41.4 µM | [15] 44.8 µM | [16] > 100 µM | [17] > 100 µM | [18] 15.8 µM | [19] > 100 µM | [20] > 100 µM | [21] 97.5 µM | [22] 29.7 µM | [24] 31.4 µM | [25] 26.4 µM | [26] 50.9 µM | [27] 19.3 µM | [28] > 100 µM | [29] 30.2 µM | [30] 86.3 µM | [31] 52.4 µM | [32] 57.9 µM | [33] 56.8 µM | [34] > 100 µM | [35] 14.8 µM | [36] 90.8 µM | [37] 58.5 µM | [38] > 100 µM | [39] 31 µM | [40] > 100 µM | [41] 39.3 µM | [42] 45.3 µM | [43] 35.2 µM | [44] 65.9 µM | [45] 29.7 µM | [46] 73.3 µM | [47] 37.2 µM | [48] 39.3 µM | [49] 83 µM | [50] 31.8 µM | [51] 35.2 µM | [53] 38.2 µM | [54] 26.6 µM | [55] 97.3 µM | [56] 77.1 µM | [57] 20.3 µM | [58] 66.4 µM | [59] 25.8 µM

CCOc1cc(NC(C)=O)ccc1C(=O)NN1C(=O)C(Oc2ccccc2)C1c1ccccc1 (configuration not stated)
inactive: [1] > 100 µM | [2] 78 µM | [3] 94.4 µM | [4] 15.3 µM | [5] > 100 µM | [6] > 100 µM | [7] > 100 µM | [8] 25.9 µM | [9] 26.5 µM | [10] > 100 µM | [11] 57.8 µM | [12] > 100 µM | [13] 1.77 µM | [16] > 100 µM | [17] > 100 µM | [18] 42.8 µM | [19] > 100 µM | [20] 70.5 µM | [21] > 100 µM | [22] > 100 µM | [23] > 100 µM | [24] > 100 µM | [25] 44.4 µM | [26] > 100 µM | [27] 85.3 µM | [28] > 100 µM | [30] > 100 µM | [31] 45 µM | [32] > 100 µM | [33] 28.6 µM | [34] 92.3 µM | [35] 15.1 µM | [37] > 100 µM | [38] > 100 µM | [39] 49.5 µM | [40] > 100 µM | [41] 45.4 µM | [42] > 100 µM | [43] 35.9 µM | [44] > 100 µM | [45] 52.5 µM | [46] > 100 µM | [47] > 100 µM | [49] > 100 µM | [50] > 100 µM | [51] 71.9 µM | [53] > 100 µM | [54] 4.15 µM | [55] 57.8 µM | [56] 52.4 µM | [57] > 100 µM | [58] > 100 µM | [59] > 100 µM
> 100 µM: [52]

CC(=O)OC1CCn2c1nc1c2C(=O)C=C(N2CC2)C1=O (configuration not stated)
active: [1] 0.0746 µM | [2] 0.22 µM | [3] 0.153 µM | [5] 0.476 µM | [7] 1.02 µM | [8] 0.17 µM | [9] 0.0354 µM | [10] 0.402 µM | [13] 0.033 µM | [15] 0.218 µM | [16] 0.108 µM | [18] 0.142 µM | [20] 0.0748 µM | [21] 0.215 µM | [22] 0.0112 µM | [23] 0.292 µM | [24] 0.269 µM | [25] 0.745 µM | [26] 0.332 µM | [27] 0.0719 µM | [28] 0.449 µM | [29] 0.103 µM | [30] 0.524 µM | [31] 0.0697 µM | [32] 0.65 µM | [33] < 0.01 µM | [34] 0.174 µM | [35] 0.173 µM | [38] < 0.0211 µM | [39] 0.394 µM | [40] 0.0314 µM | [41] 0.218 µM | [42] 0.292 µM | [43] 0.251 µM | [45] 0.0311 µM | [46] 0.185 µM | [47] 0.2 µM | [48] 0.0519 µM | [49] 0.402 µM | [50] 0.931 µM | [51] 0.0697 µM | [53] 0.774 µM | [54] 0.0953 µM | [56] 0.032 µM | [57] 0.378 µM | [59] 0.693 µM
inactive: [4] 1.15 µM | [11] 1.81 µM | [12] 1.27 µM | [14] 1.41 µM | [17] 3.31 µM | [19] 2.15 µM | [36] 2.88 µM | [37] 1.45 µM | [44] 2.11 µM | [55] 1.86 µM | [58] 1.91 µM
0.403 µM: [52]
